Here are results for 27 molecules from article PMC8286840, “Identifying SARS-CoV-2 antiviral compounds by screening for small molecule inhibitors of Nsp3 papain-like protease” (Biochemical Journal, 2021).

Test [1] has as its target T1, SARS-CoV-2 PLpro (nsp3 1564–1878) (Severe acute respiratory syndrome coronavirus 2, UniProt P0DTD1). Kind of test: biochemical. On the set-up: FRET-quenched peptide (Pro3) cleavage by PLpro, 10 min pre-incubation, slope over 20 min, normalised to no-compound control. Conditions: low concentration screen, read-out: % of control remaining.
For test [2], the target named is T1, SARS-CoV-2 PLpro (nsp3 1564–1878). Kind of test: biochemical. More on the design: FRET-quenched peptide (Pro3) cleavage by PLpro, 10 min pre-incubation, slope over 20 min, normalised to no-compound control. Conditions: high concentration screen, read-out: % of control remaining.

Each structure is given as a SMILES string. Where a name gives a salt, the structure may show the parent alone. Read-outs that look alike come from different tables or passages of the source.

Consider `Nc1cccc(-c2cc3c(Oc4cccc(O)c4)ncnc3[nH]2)c1` [TWS119], for which the remaining activity at 1.25 µM in test [1] (Well no.=4612) is 100%. The remaining activity at 3.75 µM in test [2] (Well no.=4612) is 99.7%.
Consider `Cc1cc(C=C2C(=O)C=CC2=O)cc(C)c1O` [TX-1918], for which the remaining activity at 1.25 µM in test [1] (Well no.=2677) amounted to 96.7%. For the same molecule, the remaining activity at 3.75 µM in test [2] (Well no.=2677) was determined as 98.1%.
On to `CC(C)(C)C(=O)C(=Nc1ccc(Cl)cc1)NNc1ccc(Cl)cc1` [TY-52156], for which the remaining activity at 1.25 µM in test [1] (Well no.=7819) amounted to 105%. Moreover, the remaining activity at 3.75 µM in test [2] (Well no.=7819) came out at 104%.
Turning to `C=CC[C@@H]1/C=C(\C)C[C@H](C)C[C@H](OC)[C@H]2O[C@@](O)(C(=O)C(=O)N3CCCC[C@H]3C(=O)O[C@H](/C(C)=C/[C@@H]3CC[C@@H](O)[C@H](OC)C3)[C@H](C)[C@@H](O)CC1=O)[C@H](C)C[C@@H]2OC` [Tacrolimus (monohydrate)], the remaining activity at 1.25 µM in test [1] (Well no.=6306) amounted to 96.8%; in test [1] (Well no.=7308) it was 104%. The figures for the remaining activity at 3.75 µM in test [2] (Well no.=6306) and in test [2] (Well no.=7308) were 93.9% and 107%, respectively.
Take `CN1CC(=O)N2[C@H](c3ccc4c(c3)OCO4)c3[nH]c4ccccc4c3C[C@@H]2C1=O` [Tadalafil]: in test [1] (Well no.=8188), the remaining activity at 1.25 µM came out at 95%. Also, the remaining activity at 3.75 µM in test [2] (Well no.=8188) was 95.9%.
Turning to `CC(=O)N1N=C(c2ccc(N)cc2)c2cc3c(cc2C[C@H]1C)OCO3` [Talampanel], the remaining activity at 1.25 µM in test [1] (Well no.=5791) came out at 97.9%; in test [1] (Well no.=6496), 96.3%. Moreover, the remaining activity at 3.75 µM in test [2] (Well no.=5791) turned out to be 97.1%; in test [2] (Well no.=6496), 99.6%.
Take `C[C@@H]1CN(Cc2ccc(F)cc2)[C@@H](C)CN1C(=O)c1cc2c(C(=O)C(=O)N(C)C)cn(C)c2cc1Cl` [Talmapimod]: the remaining activity at 1.25 µM in test [1] (Well no.=7304) worked out at 99.8%. Also, the remaining activity at 3.75 µM in test [2] (Well no.=7304) worked out at 91.9%.
Turning to `CC[C@H](NC(=O)c1c(O)c(-c2ccccc2)nc2ccccc12)c1ccccc1` [Talnetant], the remaining activity at 1.25 µM in test [1] (Well no.=5814) came out at 97.3%; in test [1] (Well no.=8479), 104%. In addition, the remaining activity at 3.75 µM in test [2] (Well no.=5814) came to 97.8%; in test [2] (Well no.=8479) it was 100%.
As for `CC1(C)CCC(C)(C)c2cc(NC(=O)c3ccc(C(=O)O)cc3)ccc21` [Tamibarotene], the remaining activity at 1.25 µM in test [1] (Well no.=8108) stood at 97.6%. The remaining activity at 3.75 µM in test [2] (Well no.=8108) is 101%.
Turning to `Nc1nc(-n2cccn2)nc(-n2cccn2)c1Br` [Taminadenant], the remaining activity at 1.25 µM in test [1] (Well no.=8565) was determined as 99.5%. Besides, the remaining activity at 3.75 µM in test [2] (Well no.=8565) was found to be 90.5%.
Regarding `CC/C(=C(\c1ccccc1)c1ccc(OCCN(C)C)cc1)c1ccccc1` [Tamoxifen citrate], the remaining activity at 1.25 µM in test [1] (Well no.=1184) was determined as 97.1%. The remaining activity at 3.75 µM in test [2] (Well no.=1184) was 99.3%.
Take `CC/C(=C(\c1ccccc1)c1ccc(OCCN(C)C)cc1)c1ccccc1` [Tamoxifen]: the remaining activity at 1.25 µM in test [1] (Well no.=2240) was 90.7%. Moreover, the remaining activity at 3.75 µM in test [2] (Well no.=2240) was 93.3%.
As to `CCOc1ccccc1OCCN[C@H](C)Cc1ccc(OC)c(S(N)(=O)=O)c1` [Tamsulosin], the remaining activity at 1.25 µM in test [1] (Well no.=2295) stood at 95%; in test [1] (Well no.=7386), 98.7%. In addition, the remaining activity at 3.75 µM in test [2] (Well no.=2295) worked out at 95.1%; in test [2] (Well no.=7386), 94.5%.
For the molecule `COc1cc2c(N3CCN(C(=O)Nc4ccc(OC(C)C)cc4)CC3)ncnc2cc1OCCCN1CCCCC1` [Tandutinib], in test [1] (Well no.=2851), the remaining activity at 1.25 µM turned out to be 104%. Also, the remaining activity at 3.75 µM in test [2] (Well no.=2851) was 104%.
`C=CCNC1=C2C[C@@H](C)C[C@H](OC)[C@H](O)[C@@H](C)/C=C(\C)[C@H](OC(N)=O)[C@@H](OC)/C=C\C=C(/C)C(=O)NC(=CC1=O)C2=O` [Tanespimycin (17-AAG)]: the remaining activity at 1.25 µM in test [1] (Well no.=8932) stood at 88%. In addition, in test [2] (Well no.=8932), the remaining activity at 3.75 µM was determined as 84.1%.
Turning to `O=C(O)COc1cccc(CN(Cc2ccc(-n3cccn3)cc2)S(=O)(=O)c2cccnc2)c1` [Taprenepag], in test [1] (Well no.=6182), the remaining activity at 1.25 µM came out at 96%. The remaining activity at 3.75 µM in test [2] (Well no.=6182) came out at 97.6%.
For the molecule `C[C@H](NC(=O)C(C)(C)Oc1ccc(C(F)(F)F)cn1)[C@@H](Cc1ccc(Cl)cc1)c1cccc(C#N)c1` [Taranabant], the remaining activity at 1.25 µM in test [1] (Well no.=7147) amounted to 103%. In test [2] (Well no.=7147), the remaining activity at 3.75 µM worked out at 87.5%.
With `COc1cc2c(cc1OC)CN(CCc1ccc(NC(=O)c3cc(OC)c(OC)cc3NC(=O)c3cnc4ccccc4c3)cc1)CC2` [Tariquidar], the remaining activity at 1.25 µM in test [1] (Well no.=4796) is 98.7%. The remaining activity at 3.75 µM in test [2] (Well no.=4796) amounted to 92.7%.
As to `CCC(=O)NC[C@@H]1C[C@H]1c1cccc2c1CCO2` [Tasimelteon], the remaining activity at 1.25 µM in test [1] (Well no.=6230) came out at 97.6%. The remaining activity at 3.75 µM in test [2] (Well no.=6230) came to 99%.
For the molecule `C[C@H]1CCN(C(=O)CC#N)C[C@H]1N(C)c1ncnc2[nH]ccc12` [Tasocitinib], the remaining activity at 1.25 µM in test [1] (Well no.=2789) came out at 103%. Besides, the remaining activity at 3.75 µM in test [2] (Well no.=2789) turned out to be 98.6%.
On to `NCCS(=O)(=O)O` [Taurine], for which the figures for the remaining activity at 1.25 µM in test [1] (Well no.=1233) and in test [1] (Well no.=6299) were 102% and 98.3%, respectively. The remaining activity at 3.75 µM was determined as 104% in test [2] (Well no.=1233) and 96.7% in test [2] (Well no.=6299).
Turning to `C[C@H](CCC(=O)NCCS(=O)(=O)O)[C@H]1CC[C@H]2[C@@H]3[C@H](O)C[C@@H]4C[C@H](O)CC[C@]4(C)[C@H]3CC[C@]12C` [Taurochenodeoxycholic acid], the remaining activity at 1.25 µM in test [1] (Well no.=6294) amounted to 101%. In addition, the remaining activity at 3.75 µM in test [2] (Well no.=6294) is 101%; in test [2] (Well no.=6493), 103%.
`O=S1(=O)CCN(CN2CCS(=O)(=O)NC2)CN1` [Taurolidine]: the remaining activity at 1.25 µM in test [1] (Well no.=5628) was 103%. In addition, the remaining activity at 3.75 µM in test [2] (Well no.=5628) stood at 109%.
Take `C[C@H](CCC(=O)NCCS(=O)(=O)O)[C@H]1CC[C@H]2[C@@H]3[C@@H](O)C[C@@H]4C[C@H](O)CC[C@]4(C)[C@H]3CC[C@]12C` [Tauroursodeoxycholate (Sodium)]: the remaining activity at 1.25 µM in test [1] (Well no.=6310) stood at 102%. The remaining activity at 3.75 µM in test [2] (Well no.=6310) turned out to be 104%.
As to `C[C@H](CCC(=O)NCCS(=O)(=O)O)[C@H]1CC[C@H]2[C@@H]3[C@@H](O)C[C@@H]4C[C@H](O)CC[C@]4(C)[C@H]3CC[C@]12C` [Tauroursodeoxycholate dihydrate], the remaining activity at 1.25 µM in test [1] (Well no.=7112) worked out at 95.4%. In addition, in test [2] (Well no.=7112), the remaining activity at 3.75 µM came to 93.5%.
Turning to `C[C@H](CCC(=O)NCCS(=O)(=O)O)[C@H]1CC[C@H]2[C@@H]3[C@@H](O)C[C@@H]4C[C@H](O)CC[C@]4(C)[C@H]3CC[C@]12C` [Tauroursodeoxycholic Acid (TUDCA)], the remaining activity at 1.25 µM in test [1] (Well no.=8200) turned out to be 109%. In addition, in test [2] (Well no.=8200), the remaining activity at 3.75 µM was 107%.
In the case of `C[C@]1(Cn2ccnn2)[C@H](C(=O)O)N2C(=O)C[C@H]2S1(=O)=O` [Tazobactam], the remaining activity at 1.25 µM in test [1] (Well no.=7934) came out at 97.1%. Besides, the remaining activity at 3.75 µM in test [2] (Well no.=7934) came out at 103%.
